In series [1] the test system is SF-295 (CNS cancer) cells. Briefly: NCI-60 five dose screen, SF-295. The conditions noted are these: read-out: LC50; SF-295, CNS.
Series [2] has as its system A2780ADR (doxorubicin resistant subclone of ovarian carcinoma A2780) cells. Put plainly: MTS cytotoxicity assay, A2780ADR. The format is cell-based. The conditions noted are these: 48 and 72 hours of exposure. The source says:
(§1) Human cell lines used included MG-63 (osteosarcoma), SK-OV-3 (ovarian adenocarcinoma), MDA-MB-231 (breast adenocarcinoma derived from a metastatic site), HCT 116 (colorectal carcinoma), HCT 116/200 (an FdUrd resistant subclone of HCT 116 cells), and A2780ADR (a doxorubicin resistant subclone of the ovarian carcinoma A2780). All cells were stored in liquid nitrogen until use. MG-63, SK-OV-3, MDA-MB-231, and HCT 116 cell lines were all obtained from ATCC. A2780ADR cells were obtained from Sigma-Aldrich. HCT 116/200 cells were obtained from Dr. Franklin G. Berger from the Center for Colon Cancer Research. MG-63 cells were maintained in MEM medium (Corning) supplemented with 10% Fetal Bovine Essence (VWR) and 1% penicillin/streptomycin solution (Corning). SK-OV-3 cells were maintained in McCoy's 5A Medium (Sigma) supplemented with Fetal Bovine Essence and 1% penicillin/streptomycin. […]
(§2) Cells were first grown to approximately 80% confluency within […] tissue culture flasks (VWR). […] Cells were counted using a hemocytometer and their viability was confirmed using trypan blue (Gibco). […]
(§3) In combination studies, 7-acetoxyroyleanone and FdUrd were first mixed into the same media and then added to the cells. […] The cells were incubated for 2 hours, and the absorbance of each well at 490 nm was measured using a Spectramax 190 microplate reader.

For series [3], the system named is MDA-MB-231 (breast adenocarcinoma) cells. Put plainly: MTS cytotoxicity assay, MDA-MB-231. The format is cell-based. Particulars: MDA-MB-231 cells.
Text: as §1, §2, §3

In series [4] the test system is NCI-H522 (non-small cell lung cancer) cells. Briefly: NCI-60 five dose screen, NCI-H522. Particulars: read-out: LC50; NCI-H522, Non-small Cell Lung Cancer.
The subject of series [5] is leukemia cell lines. The conditions noted are these: read-out: LC50; each leukemia cell line; not reached at highest concentration tested.
For series [6] the following is noted: read-out: LC50; melanoma cell line SK-OV-3 (so in the source), most sensitive to cell death.
For series [7], the system named is MG-63 (osteosarcoma) cells. Briefly: MTS cytotoxicity assay, MG-63. The format is cell-based. Particulars: MG-63 cells, 48 and 72 hours of exposure.
Text: as §1, §2, §3

In series [8] the test system is HCC-2996 (colon cancer) cells. Briefly: NCI-60 five dose screen, HCC-2996.
In series [9] the test system is MDA-MB-468 (breast cancer) cells. Briefly: NCI-60 five dose screen, MDA-MB-468. The conditions noted are these: read-out: LC50; MDA-MB-468, Breast.
In series [10] the test system is SK-MEL-5 (melanoma) cells.
[11] abbreviates: HCC-2996, most sensitive cell line to growth inhibition.

The results in this text go back to patent US20180353457A1, “ABIETANE DITERPENOID 7-ACETOXYROYLEANONES FOR USE IN CANCER TREATMENT” (University of South Carolina, priority 2017, published 2018).

Take `CC(=O)O[C@@H]1C[C@H]2C(C)(C)CCC[C@]2(C)C2=C1C(=O)C(C(C)C)=C(O)C2=O` [7-acetoxyroyleanone]: the CC50 in series [1] was 7.37 µM; in series [4] it was 9.02 µM; in series [5], greater than 100 µM; in series [6], 4.34 µM; in [8] (read-out: LC50, HCC-2996, Colon), 6.41 µM; in series [9], 9.46 µM. In [10], this molecule returned a CC50 of 4.34 µM. The “cytotoxicity (percent viability)” value is recorded as “significant cytotoxic properties” in series [2]; “significant cytotoxic properties” in [3] (48 and 72 hours of exposure, MTS); “significant cytotoxic properties” in [7]. Also, in series [3] (1 μg/mL), the “cell death at the lowest concentration tested” value is given as “cell death was indicated”. The molecule further showed a GI50 in series [8] (setting [11]) of 0.405 µM. Moreover, the total growth inhibition concentration (TGI) in [8] (setting [11]) amounted to 1.62 µM.
